According to patent US20070014788A1, “Laminin-5 modulators and uses thereof” (Novo Nordisk A/S, priority 2004, published 2007):

B1: TRAIL: TNF-related apoptosis-inducing ligand (protein, UniProt P50591 1-281, looked up)
Tumor necrosis factor ligand …: MAMMEVQGGPSLGQTCVLIVIFTVLLQSLCVAVTYVYFTNELKQMQDKYSKSGIACFLKEDDSYWDPNDEESMNSPCWQVKWQLRQLVRKMILRTSEETISTVQEKQQNISPLVRERGPQRVAAHITGTRGRSNTLSSPNSKNEKALGRKINSWESSRSGHSFLSNLHLRNGELVIHEKGFYYIYSQTYFRFQEEIKENTKNDKQMVQYIYKYTSYPDPILLMKSARNSCWSKDAEYGLYSIYQGGIFELKENDRIFVSVTNEHLIDMDHEASFFGAFLVG

Test system: SW480 cells
Assay: Cell death (LDH release) of transfected SW480 cells, alone and with anti-cancer compounds
Type: cell-based
Conditions: low dose of compound, 24 hours
Description: SW480 cells obtained from ATCC were grown in DME:F12 supplemented with 10% foetal calf serum and routinely checked for being mycoplasma free. For transfection, the cells were seeded as 3×10^5 cells/2 ml in 6 well plates. Transfection was carried out after cells have attached at least overnight using Lipofectamin 2000 (Life Technologies). Liposomes were formed in medium without serum by mixing 10 μl lipofectamine 2000 and 3 μg plasmid DNA or 15 μl 20 pmol/μl oligonucleotide in a total volume of 250 μl. After liposome formation, the mixture was added to cells and incubated 5 hours in cell incubator before medium was changed to complete medium with serum. After 24 hours, cells were trypsinised and moved to 96 well plates to analyse for death induction.
The cells were allowed to plate for 24 hours before dosing with the indicated compounds, all in triplicate. The compounds were solubilised in DMSO and added to cells in medium with no more than 0.1% v/v DMSO. Triplicate cell cultures for basal cell death (untreated) and maximal response (complete lysis) were included as well as triplicate media samples for background determination. Cells were incubated for additional 24 hours. The maximal response (100% cell death) was induced by adding 1% v/v Triton X100 to triplicate cell cultures 5 min before medium was collected for detection of lactate dehydrogenase (LDH) activity. Medium from all samples were used in the detection of LDH using a kit from Takara Bio Inc.

Molecule	effect of added compound on the increased cell death by siRNA against gamma2
CN[C@@H]1C[C@H]2O[C@@](C)([C@@H]1OC)n1c3ccccc3c3c4c(c5c6ccccc6n2c5c31)C(=O)NC4 [staurosporine]	did not attenuate
tunicamycin	did not attenuate
C/C=C(/C)C(=O)O[C@H]1C(C)=C2[C@H]([C@@H]1OC(=O)CCCCCCC)[C@@](C)(OC(C)=O)C[C@H](OC(=O)CCC)[C@@]1(O)[C@H]2OC(=O)[C@@]1(C)O [thapsigargin]	did not attenuate
B1	did not attenuate
